Data: patent US20260008768A1, “UREA DERIVATIVES FOR INHIBITING NLRP3 AND USES THEREOF” (VENTUS THERAPEUTICS U.S., INC., priority 2023, published 2026)

What was measured:
human NLRP3 [1] = biological target: T1, human NLRP3 (Homo sapiens, UniProt Q96P20); assay: Scintillation Proximity (SPA) NLRP3 Assay, displacement of 3H-MCC950; type: binding; conditions: displacement of 3H-MCC950 from human NLRP3
Summary of the method: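 Human NLRP3 (350 nM) preincubated 15 min at RT with compound (5% DMSO final) in HEPES pH 7.5 buffer with 100 μM ADP, then 125 nM 3H-MCC950 added for 60 min. Copper PVT SPA beads added; counts read 6 h later. Specific binding = signal minus no-protein wells, duplicates averaged; IC50 reported.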

human NLRP3 [2] = biological target: T1, human NLRP3; assay: Human PBMC NLRP3 Assay (LPS priming, ATP stimulation, cytokine measurement); type: cell-based; design: host or cells: human PBMCs (A2); human whole blood from healthy volunteers (A3); conditions: human PBMC, LPS + ATP
Protocol: Reagents: Human PBMCs (Normal): iXCells Cat #10HU-003; RPMI 1640 medium with GlutaMAX: ThermoFisher Cat #61870127 (Complete Media: 4.5 g/L D-glucose, 10% FBS, 100 mM NaPyr, 1% Pen/Strep, 10 mM HEPES and 0.05 mM of ®-mercaptoethanol; Assay Media: 4.5 g/L D-glucose, 100 mM NaPyr, 1% Pen/Strep, 10 mM HEPES and 0.05 mM of mercaptoethanol; 96-well V-bottom Plates: Costar Cat #3894; LPS (E. coli O26:B6): Sigma Cat #L2654, stock 5 mg/mL in PBS; ATP: Sigma Cat #A6419, prepared in a 250 mM stock in 1 M HEPES (adjusted to pH 7.4).
Cryopreserved PBMCs were rapidly thawed in a 37° C. water bath for 2 min. Cells were then centrifuged at 1200 RPM for 5 min and resuspended in ˜50 mL of fresh RPMI 1640 Complete Medium. A count was undertaken using a hemocytometer and adjusted to 2.5×10^5 cells/mL. V-shaped 96-well plates were seeded with 200 μL of PBMCs (5×10^4) per well and subsequently incubated overnight at 37° C. with 5% CO2. Assay Media was then prepared containing 100 ng/ml of LPS. PBMCs were then centrifuged at 1,200 RPM for 5 min, serum containing media was aspirated, and 150 μL/well of Assay Media+LPS was immediately added. Assay Media without LPS was added in the untreated control wells. Cells were then primed with LPS for 4 h at 37° C. with 5% CO2. A concentration response curve (CRC) was prepared of 1000× test compound in 100% DMSO. The CRC was then diluted 1:50 in Assay Media and then further diluted by 1:5× in Assay Media resulting in a final 4×CRC in 0.4% DMSO/Assay Media. 50 μL/well of 4× test compound CRC or vehicle (0.4% DMSO/Assay Media) was then transferred into each well and subsequently incubated for 30 min at 37° C. with 5% CO2. Cells were stimulated by adding 4 μL of 250 mM ATP, using a 250 mM stock prepared in 1 M Hepes without further dilution (for a final concentration of 5 mM), for 1 h at 37° C. with 5% CO2 Plates were then centrifuged at 1200 RPM for 5 min; and 50 μl of the media was transferred to a clean 96-well storage plate for cytokine measurements using the mesoscale platform, and stored at −80° C. until analyzed. Compounds were added 30 minutes before priming the cells with LPS when TNFα was required to be quantified in the cytokine panel to confirm selectivity.
PBMC NLRP3 IC50 assay results, as a measurement of cellular potency, are provided in Table B. “A” activity=<0.01 uM; “B” activity=0.01-0.1 uM; “C” activity=>0.1-0.5 uM; “D” activity=>0.5 uM.

human NLRP3 [3] = biological target: T1, human NLRP3; assay: Human Whole Blood (hWB) NLRP3 Assay (LPS/ATP, IL-1β); type: cell-based; design: host or cells: human whole blood from healthy volunteers (A3)
Protocol: Human whole blood is drawn from healthy volunteers after obtaining written informed consent. Heparin lithium coated tubes are used to collect blood from volunteers. Blood samples are distributed on 96 well plates using 90 μl per well.
Priming procedure: Priming is performed by adding 5 μl of LPS (O26:B6; Sigma L-2654) at a final concentration of 1 μg/ml for 4.5 hours in a humidified incubator with 37° C., 5% CO2. Thirty minutes prior to NLRP3 activation, 5 μl of a 20× compound solution or vehicle (2% dimethylsulfoxide (DMSO)) is added to each well and plates were incubated on a shaker (450 rpm) in a humidified incubator with 37° C., 5% CO2.
Alternative priming procedure: Thirty minutes prior to LPS priming, 5 μl of a 20× compound solution or vehicle (2% dimethylsulfoxide (DMSO)) is added to each well and plates were incubated on a shaker (450 rpm) in a humidified incubator with 37° C., 5% CO2. Priming is performed by adding 5 μl of LPS (O26:B6; Sigma L-2654) at a final concentration of 1 μg/ml for 5 hours in a humidified incubator with 37° C., 5% CO2.
Activation is then performed by adding 3.3 μl of a 31×ATP solution per well. At the end of the 30 minutes stimulation, the plates are centrifuged (800 g, 10 min, room temperature) and the plasma from each well is frozen at −80° C. IL-1β levels in the supernatant were analyzed using a mesoscale discovery assay (MSD K151TUK) according to the manufacturers' instructions.
There is no detectable difference in assay results using the priming procedure versus the alternative priming procedure.
hWB NLRP3 IC50 assay results, as a measurement of whole blood potency, are provided in Table B. “A” activity=<1 uM; “B” activity=1-2 uM; “C” activity=>2-3 uM; “D” activity=>3 uM.

T1 sequence (Q96P20 whole entry): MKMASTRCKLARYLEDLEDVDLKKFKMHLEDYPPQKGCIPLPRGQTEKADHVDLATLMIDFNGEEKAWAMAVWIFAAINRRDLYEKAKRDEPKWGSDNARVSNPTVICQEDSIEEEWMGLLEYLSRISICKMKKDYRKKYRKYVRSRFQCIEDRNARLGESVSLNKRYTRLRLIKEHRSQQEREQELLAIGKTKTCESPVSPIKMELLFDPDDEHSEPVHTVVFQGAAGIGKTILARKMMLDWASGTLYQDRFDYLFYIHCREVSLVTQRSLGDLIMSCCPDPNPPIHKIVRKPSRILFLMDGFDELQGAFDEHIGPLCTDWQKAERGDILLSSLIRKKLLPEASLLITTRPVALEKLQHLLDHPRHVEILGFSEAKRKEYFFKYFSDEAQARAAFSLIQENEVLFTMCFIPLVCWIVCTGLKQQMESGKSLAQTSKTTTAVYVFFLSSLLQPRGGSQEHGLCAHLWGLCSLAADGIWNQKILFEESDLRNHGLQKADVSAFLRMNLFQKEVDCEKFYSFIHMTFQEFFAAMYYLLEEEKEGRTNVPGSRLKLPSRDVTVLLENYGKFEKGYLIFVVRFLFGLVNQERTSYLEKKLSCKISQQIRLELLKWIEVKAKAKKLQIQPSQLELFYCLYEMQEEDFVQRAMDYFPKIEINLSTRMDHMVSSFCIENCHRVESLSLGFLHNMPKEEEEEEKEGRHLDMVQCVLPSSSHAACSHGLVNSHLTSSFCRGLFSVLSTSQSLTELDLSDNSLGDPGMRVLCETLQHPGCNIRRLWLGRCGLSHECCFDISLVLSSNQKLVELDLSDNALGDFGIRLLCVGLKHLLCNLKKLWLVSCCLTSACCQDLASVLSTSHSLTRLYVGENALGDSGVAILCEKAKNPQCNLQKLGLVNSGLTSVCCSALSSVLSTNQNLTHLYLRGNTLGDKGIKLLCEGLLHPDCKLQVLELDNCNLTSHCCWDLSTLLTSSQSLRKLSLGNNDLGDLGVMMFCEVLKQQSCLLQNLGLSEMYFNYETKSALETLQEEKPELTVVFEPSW

Row | SMILES | IC50 (human NLRP3 [1]; Table B, activity class) | IC50 (human NLRP3 [2]; Table B, activity class) | IC50 (human NLRP3 [3]; Table B, activity class) | IC50 (human NLRP3 [1]; Table C) | IC50 (human NLRP3 [2]; Table C) | IC50 (human NLRP3 [3]; Table C)
1 | C[C@@H]1CCN(c2nnn[nH]2)C[C@H](NC(=O)N(C)c2ccc(OC(F)F)cc2F)C1 (single isomer, unassigned) [17A*] | < 1000 nM | < 10 nM | 1000 to 2000 nM |  |  | 
2 | C[C@@H]1CCN(c2nnn[nH]2)C[C@H](NC(=O)N(C)c2ccc(OC(F)F)c(F)c2F)C1 (single isomer, unassigned) [40A*] | < 1000 nM | 10 to 100 nM | 1000 to 2000 nM |  |  | 
3 | C[C@@H]1CCN(c2nnn[nH]2)C[C@H](NC(=O)N(C)c2ccc(C(F)(F)F)cc2F)C1 (single isomer, unassigned) [13A*] | < 1000 nM | < 10 nM | < 1000 nM | 550 nM | 5.6 nM | 200 nM
4 | C[C@@H]1C[C@@H](NC(=O)N(C)c2c(F)cc(C3CC3)cc2F)[C@H]2CC[C@@H]1N2c1nnn[nH]1 (single isomer, unassigned) [60A*] | < 1000 nM | < 10 nM | < 1000 nM |  |  | 
5 | C[C@@H]1CCN(c2nnn[nH]2)C[C@H](NC(=O)N(C)c2ccc(C(F)(F)F)c(F)c2F)C1 (single isomer, unassigned) [21A*] | < 1000 nM | 10 to 100 nM | < 1000 nM |  |  | 
6 | C[C@@H]1CCN(c2nnn[nH]2)C[C@H](NC(=O)N(C)c2ccc(OC(F)F)c(OC(F)F)c2)C1 (single isomer, unassigned) [16A*] | < 1000 nM | < 10 nM | 1000 to 2000 nM |  |  | 
7 | C[C@@H]1CCN(c2nnn[nH]2)C[C@H](NC(=O)N(C)c2ccc(OC(F)(F)F)c(F)c2F)C1 (single isomer, unassigned) [26A*] | < 1000 nM | 10 to 100 nM | > 3000 nM |  |  | 
8 | C[C@@H]1C[C@@H](NC(=O)N(C)c2c(F)cc(OC(F)(F)F)cc2F)[C@H]2CC[C@@H]1N2c1nnn[nH]1 (single isomer, unassigned) [62A*] | < 1000 nM | 10 to 100 nM | < 1000 nM |  |  | 
9 | C[C@@H]1C[C@@H](NC(=O)N(C)c2ccc(OC(F)F)c(F)c2)[C@H]2CC[C@@H]1N2c1nnn[nH]1 (single isomer, unassigned) [52A*] | < 1000 nM | 10 to 100 nM | < 1000 nM |  |  | 
10 | C[C@@H]1C[C@@H](NC(=O)N(C)c2ccc(OC(F)F)cc2)[C@H]2CC[C@@H]1N2c1nnn[nH]1 (single isomer, unassigned) [42A*] | < 1000 nM | < 10 nM | < 1000 nM | 65 nM | 4.1 nM | 290 nM
11 | C[C@@H]1C[C@@H](NC(=O)N(C)c2c(F)cc(OC(F)F)cc2F)[C@H]2CC[C@@H]1N2c1nnn[nH]1 (single isomer, unassigned) [61A*] | < 1000 nM | < 10 nM | < 1000 nM |  |  | 
12 | C[C@@H]1CCN(c2nnn[nH]2)C[C@H](NC(=O)N(C)c2ccc(Cl)c(F)c2)C1 (single isomer, unassigned) [12A*] | < 1000 nM | 10 to 100 nM | 2000 to 3000 nM |  |  | 
13 | C[C@@H]1C[C@@H](NC(=O)N(C)c2ccc(C(F)(F)F)c(F)c2)[C@H]2CC[C@@H]1N2c1nnn[nH]1 (single isomer, unassigned) [49A*] | < 1000 nM | 10 to 100 nM | 1000 to 2000 nM |  |  | 
14 | C[C@@H]1CCN(c2nnn[nH]2)C[C@H](NC(=O)N(C)c2c(F)cc(OC(F)F)cc2F)C1 (single isomer, unassigned) [19A*] | < 1000 nM | < 10 nM | < 1000 nM |  |  | 
15 | C[C@@H]1CCN(c2nnn[nH]2)C[C@H](NC(=O)N(C)c2ccc(C(F)F)cc2F)C1 (single isomer, unassigned) [18A*] | < 1000 nM | < 10 nM | < 1000 nM |  |  | 
16 | C[C@@H]1CCN(c2nnn[nH]2)C[C@H](NC(=O)N(C)c2ccc(C3CC3)c(F)c2)C1 (single isomer, unassigned) [23A*] | < 1000 nM | < 10 nM | < 1000 nM |  |  | 
17 | C[C@@H]1C[C@@H](NC(=O)N(C)c2ccc(OC(F)(F)F)c(F)c2F)[C@H]2CC[C@@H]1N2c1nnn[nH]1 (single isomer, unassigned) [59A*] | < 1000 nM | 100 to 500 nM | 2000 to 3000 nM |  |  | 
18 | C[C@@H]1C[C@@H](NC(=O)N(C)c2ccc(OC(F)F)c(OC(F)F)c2)[C@H]2CC[C@@H]1N2c1nnn[nH]1 (single isomer, unassigned) [64A*] | < 1000 nM | 10 to 100 nM | < 1000 nM |  |  | 
19 | C[C@@H]1C[C@@H](NC(=O)N(C)c2ccc(C3CC3)c(F)c2)[C@H]2CC[C@@H]1N2c1nnn[nH]1 (single isomer, unassigned) [54A*] | < 1000 nM | < 10 nM | < 1000 nM |  |  | 
20 | C[C@@H]1C[C@@H](NC(=O)N(C)c2ccc(C3CC3)cc2)[C@H]2CC[C@@H]1N2c1nnn[nH]1 (single isomer, unassigned) [46A*] | < 1000 nM | < 10 nM | < 1000 nM |  |  | 
21 | C[C@@H]1C[C@@H](NC(=O)N(C)c2ccc(OC(F)F)cc2F)[C@H]2CC[C@@H]1N2c1nnn[nH]1 (single isomer, unassigned) [57A*] | < 1000 nM | < 10 nM | < 1000 nM | 199 nM | 3.1 nM | 190 nM
22 | C[C@@H]1CCN(c2nnn[nH]2)C[C@H](NC(=O)N(C)c2ccc(OC(F)(F)F)cc2F)C1 (single isomer, unassigned) [24A*] | < 1000 nM | < 10 nM | < 1000 nM | 110 nM | 7.9 nM | 260 nM
23 | C[C@@H]1CCN(c2nnn[nH]2)C[C@H](NC(=O)N(C)c2c(F)cc(OC(F)(F)F)cc2F)C1 (single isomer, unassigned) [41A*] | < 1000 nM | < 10 nM | < 1000 nM |  |  | 
24 | CCN(C(=O)N[C@@H]1C[C@H](C)CCN(c2nnn[nH]2)C1)c1ccc(OC(F)(F)F)cc1 (single isomer, unassigned) [43A*] | < 1000 nM | < 10 nM | < 1000 nM |  |  | 
